Assay results: the supplement of paper PMC10307832

Experiments:
Experiment in all cases: relative viability (nuclei count vs DMSO), 5 days (fraction); higher = more cells survive
[1] = compound: CCOC(=O)CCNc1cc(N2CCc3ccccc3CC2)nc(-c2ccccn2)n1 [GSK-J4] + CS(=O)(=O)N1CCN(Cc2cc3nc(-c4cccc5[nH]ncc45)nc(N4CCOCC4)c3s2)CC1 [Pictilisib] (partner 1 µM)
In short: (§1)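 Cells from lung cancer lines were seeded into 1536-well plates and, one day later, dosed by pin tool. Treatments were either a single drug or a fixed dose of an anchor drug with five library-drug doses (not always all listed) in √10 steps. After 5 days, nuclei were stained in a one-step fixation (final 0.05% Triton X-100, 1% formaldehyde, 1 ug/ml Hoechst) and counted on 4× images, and relative viability is the treated-to-vehicle nuclei ratio, as the median of duplicate plates.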

[2] = compound: CCOC(=O)CCNc1cc(N2CCc3ccccc3CC2)nc(-c2ccccn2)n1 [GSK-J4] + COc1cccc2cc(-c3nc([C@H]4CC[C@H](C(=O)O)CC4)n4ncnc(N)c34)[nH]c12 [OSI-027] (partner 0.5 µM)
In short: as §1

[3] = compound: CCOC(=O)CCNc1cc(N2CCc3ccccc3CC2)nc(-c2ccccn2)n1 [GSK-J4] + Cc1cc(Nc2cc(N3CCN(C)CC3)nc(Sc3ccc(NC(=O)C4CC4)cc3)n2)n[nH]1 [Tozasertib] (partner 0.1 µM)
In short: as §1

[4] = compound: CCOC(=O)CCNc1cc(N2CCc3ccccc3CC2)nc(-c2ccccn2)n1 [GSK-J4] + C[C@]1(O)C[C@@H](c2nc(-c3ccc4ccc(-c5ccccc5)nc4c3)c3c(N)nccn32)C1 [Linsitinib] (partner 1 µM)
In short: as §1

Cell Line | relative viability ([1]; first compound 0.5 µM) | relative viability ([1]; first compound 1.581 µM) | relative viability ([1]; first compound 5 µM) | relative viability ([1]; first compound 15.81 µM) | relative viability ([1]; first compound 50 µM) | relative viability ([2]; first compound 0.5 µM) | relative viability ([2]; first compound 1.581 µM) | relative viability ([2]; first compound 5 µM) | relative viability ([2]; first compound 15.81 µM) | relative viability ([2]; first compound 50 µM) | relative viability ([3]; first compound 0.5 µM) | relative viability ([3]; first compound 1.581 µM) | relative viability ([3]; first compound 5 µM) | relative viability ([3]; first compound 15.81 µM) | relative viability ([3]; first compound 50 µM) | relative viability ([4]; first compound 0.5 µM) | relative viability ([4]; first compound 1.581 µM) | relative viability ([4]; first compound 5 µM) | relative viability ([4]; first compound 15.81 µM) | relative viability ([4]; first compound 50 µM)
201T | 0.653 | 0.791 | 0.726 | 0.687 | 0.598 | 0.668 | 0.414 | 0.932 | 0.691 | 0.721 | 0.801 | 0.971 | 0.96 | 0.901 | 0.836 | 1.02 | 1.08 | 1.1 | 1.04 | 1.06
A549 | 0.43 | – | 0.573 | 0.488 | 0.332 | – | – | – | – | – | – | – | – | – | – | 0.559 | – | 0.733 | 0.442 | 0.578
A-427 | 0.703 | – | 0.688 | 0.613 | 0.675 | 0.536 | – | 0.439 | 0.396 | 0.198 | 0.233 | – | 0.22 | 0.18 | 0.157 | 1.07 | – | 1.14 | 1.11 | 0.94
ABC-1 | 0.686 | 0.591 | 0.671 | 0.648 | 0.436 | 0.533 | 0.442 | 0.441 | 0.357 | 0.336 | 0.188 | 0.166 | 0.171 | 0.166 | 0.188 | 0.788 | 0.632 | 1.07 | 0.802 | 0.378
BEN | 0.666 | 0.471 | – | 0.539 | 0.33 | 0.334 | 0.249 | – | 0.315 | 0.212 | 0.514 | 0.41 | 0.609 | 0.375 | 0.492 | 0.91 | 0.706 | – | 0.925 | 0.823
CAL-12T | 0.622 | 0.425 | 0.626 | 0.418 | 0.454 | 0.631 | 0.646 | 0.778 | 0.61 | 0.528 | 0.304 | 0.324 | 0.336 | 0.264 | 0.357 | 0.856 | 0.776 | 0.776 | 0.742 | 0.648
COR-L23 | 0.731 | 0.532 | – | 0.606 | 0.566 | 0.753 | 0.603 | – | 0.733 | 0.625 | 0.171 | 0.211 | – | 0.158 | 0.136 | 0.909 | 0.933 | – | 0.868 | 0.807
COR-L 105 | 0.519 | 0.414 | 0.375 | 0.402 | 0.36 | 0.631 | 0.64 | 0.546 | 0.585 | 0.692 | 0.311 | 0.371 | 0.36 | 0.394 | 0.387 | 0.985 | 0.572 | 0.91 | 1.06 | 0.99
Calu-6 | 0.825 | 0.874 | 0.895 | 0.88 | 0.807 | – | – | – | – | – | – | – | – | – | – | 0.868 | 0.924 | 0.719 | 0.927 | 0.869
ChaGo-K-1 | 0.864 | – | 0.655 | 0.82 | 0.596 | 0.591 | 0.419 | 0.441 | 0.533 | 0.428 | 0.221 | 0.213 | 0.236 | 0.236 | 0.21 | – | – | – | – | –
EBC-1 | 0.376 | 0.336 | 0.451 | 0.416 | 0.257 | – | – | – | – | – | – | – | – | – | – | 0.937 | 0.758 | 0.789 | 0.795 | 0.709
EKVX | 0.343 | 0.536 | 0.619 | 0.424 | 0.397 | 0.673 | 0.412 | 0.619 | 0.6 | 0.567 | 0.379 | 0.213 | 0.406 | 0.346 | 0.334 | 0.928 | 0.832 | 1.16 | 0.836 | 0.902
EMC-BAC-2 | 0.627 | 0.597 | 0.423 | 0.598 | 0.52 | 0.347 | 0.386 | 0.249 | 0.315 | 0.311 | 0.251 | 0.248 | 0.215 | 0.263 | 0.285 | 0.781 | 0.728 | 0.83 | 0.715 | 0.794
EPLC-272H | 0.428 | – | 0.35 | 0.275 | 0.219 | 0.313 | 0.255 | 0.261 | 0.293 | 0.192 | 0.385 | 0.174 | 0.443 | 0.146 | 0.172 | 1.16 | – | 1.31 | 1.02 | 1.11
H3255 | 0.415 | 0.414 | 0.498 | 0.412 | 0.424 | 0.616 | 0.545 | 0.627 | 0.529 | 0.531 | 0.519 | 0.622 | 0.539 | 0.531 | 0.508 | 0.902 | 0.952 | 0.838 | 0.84 | 0.707
HARA | 0.375 | 0.443 | – | 0.524 | 0.156 | 0.548 | – | – | 0.282 | 0.219 | 0.124 | – | – | 0.103 | 0.117 | 0.891 | 0.608 | – | 0.797 | 0.699
HCC-15 | 0.743 | 0.353 | 0.784 | 0.666 | 0.473 | 0.722 | – | 0.634 | 0.469 | 0.285 | 0.393 | – | 0.344 | 0.319 | 0.2 | 0.845 | 0.793 | 0.892 | 0.785 | 0.629
HCC-44 | 0.665 | 0.57 | 0.498 | 0.553 | 0.442 | 0.51 | 0.31 | – | 0.387 | 0.483 | 0.809 | 0.803 | – | 0.646 | 0.688 | 0.704 | 0.625 | 0.709 | 0.735 | 0.646
HCC-78 | 0.202 | 0.185 | 0.889 | – | 0.225 | 0.351 | 0.355 | 0.727 | 0.368 | 0.409 | 0.426 | 0.401 | 0.494 | 0.379 | 0.348 | 0.44 | 0.499 | 0.701 | – | 0.484
